Measurements: patent US7794929B2, “Genomic screen for epigenetically silenced genes associated with cancer” (The Johns Hopkins University School of Medicine, priority 2002, dated 2010)

Legend:
RKO cells = assay: Subtraction microarray and semi-quantitative RT-PCR of gene expression after DAC and/or TSA treatment; type: cell-based, human; details: for expression of Group 2 genes (n=23) / expression of Group 1 genes (n=51): RKO cells, semi-quantitative RT-PCR; for expression of Group 2 genes (n=23): DAC alone or TSA alone; for expression of Group 1 genes (n=51): low dose DAC alone, TSA alone or combined
Protocol: RKO cells were treated with 5-aza-2′-deoxycytidine (DAC; Sigma) and/or trichostatin A (TSA; Wako) as described (Cameron et al., supra, 1999). Briefly, the treatment consisted of DAC (200 nM) for 48 hr, with drug and medium replaced at the 24 hr time point after beginning of treatment, followed by addition of TSA to a final concentration of 300 nM (from a 1.5 mM ethanol dissolved stock) and incubation for an additional 24 hr. Cells also were treated with DAC alone or TSA alone, or mock treated, using the same volumes of PBS and/or ethanol, and/or same amount of the drugs. Some colorectal cancer (CRC) cell lines also were treated for RT-PCR analysis to assess more robust levels of gene expression; treatment was with 5 μM DAC for 72 hr, with drug and medium being replaced every 24 hr. Total RNA was extracted using the TRIZOL Reagent (Gibco/BRL), and used for microarray analysis, cDNA subtraction and RT-PCR. Prior to cDNA subtraction, poly A RNA was isolated from total RNA using the MESSAGE MAKER Reagent Assembly kit (Gibco/BRL). cDNA subtraction was performed with the combination treated RKO cell line as the tester, and mock treated cells as the driver by using the PCR-Select™ cDNA subtraction kit (Clontech). Synthesized cDNA was digested with Rsa I, and tester cDNA was ligated to adaptors included in the kit. After hybridization, PCR amplification of the subtracted cDNA was performed using the ADVANTAGE cDNA PCR kit (Clontech). Microarray analysis was performed using the Mammalian GeneFilters Microarrays™ system (Research Genetics). Filters were generated for approximately 5,000 of the genes analyzed in the Johns Hopkins Comprehensive microarray core, and filters for an additional 5,000 genes were purchased (Human GeneFilters Microarrays™ Release II; Research Genetics). A total of 10,814 genes and ESTs were analyzed. Hybridization of the filters was performed according to manufacturer's recommendation. Briefly, 5 μg of total RNA was reverse transcribed and labeled using oligo (dT)12-18 primer and ^32dCTP with SUPERSCRIPT II reverse transcriptase (Gibco/BRL). Hybridization of the filters was allowed to proceed for 12 to 18 hr. Data was analyzed using the PSCAN program (National Institutes of Health). For subtraction-microarray analysis, the 2nd PCR product from cDNA subtraction was labeled with ^33P using the MULTIPRIME DNA labeling system (Amersham). Hybridization and data analysis were performed as described above. Microarray analysis was repeated independently at least three times for each condition, and results for probing the arrays with cDNA for total RNA from mock treated cells were compared to those for hybridizations with subtraction PCR products. DNase I (Ambion) treated total RNA (2 μg) was reverse transcribed for single stranded cDNA using oligo (dT)12-18 primer with SUPERSCRIPT II reverse transcriptase (Gibco/BRL). PCR reactions were performed in a volume of 50 μl containing 1×PCR buffer (Gibco/BRL), 1.5 mM of MgCl2, 0.3 mM of dNTP, 0.25 μM of each primer and 2 U of Taq polymerase (Gibco/BRL). One hundred ng of cDNA was used for PCR amplification, and all of the genes were amplified with multiple cycle numbers (20 to 35 cycles) to determine appropriate conditions to obtain semi-quantitative differences in their expression levels. GAPDH PCR (25 and 28 cycles) was performed to ensure cDNA quality and loading accuracy. Amplification primer pairs were as shown in Table 4 (SEQ ID NOS: 149 to 296.

CRC cell lines = assay: RT-PCR expression analysis of methylation silenced genes in CRC cell lines after DAC treatment; type: cell-based, human
Protocol: Briefly, the treatment consisted of DAC (200 nM) for 48 hr, with drug and medium replaced at the 24 hr time point after beginning of treatment, followed by addition of TSA to a final concentration of 300 nM (from a 1.5 mM ethanol dissolved stock) and incubation for an additional 24 hr. Cells also were treated with DAC alone or TSA alone, or mock treated, using the same volumes of PBS and/or ethanol, and/or same amount of the drugs. Some colorectal cancer (CRC) cell lines also were treated for RT-PCR analysis to assess more robust levels of gene expression; treatment was with 5 μM DAC for 72 hr, with drug and medium being replaced every 24 hr. Total RNA was extracted using the TRIZOL Reagent (Gibco/BRL), and used for microarray analysis, cDNA subtraction and RT-PCR. DNase I (Ambion) treated total RNA (2 μg) was reverse transcribed for single stranded cDNA using oligo (dT)12-18 primer with [sequence] II reverse transcriptase (Gibco/BRL). PCR reactions were performed in a volume of 50 μl containing 1×PCR buffer (Gibco/BRL), 1.5 mM of MgCl2, 0.3 mM of dNTP, 0.25 μM of each primer and 2 U of Taq polymerase (Gibco/BRL). One hundred ng of cDNA was used for PCR amplification, and all of the genes were amplified with multiple cycle numbers (20 to 35 cycles) to determine appropriate conditions to obtain semi-quantitative differences in their expression levels. GAPDH PCR (25 and 28 cycles) was performed to ensure cDNA quality and loading accuracy. […] For RT-PCR, SFRP2 sense and antisense primers were designed for exons 2 and 3, respectively; SFRP4 sense and antisense primers were designed for exons 2 and 5, respectively; and SFRP5 sense and antisense primers were designed for exons 2 and 3, respectively.

[1] = colorectal cancer cells and/or gastric cancer cells

Compound	expression of Group 2 genes (n=23) (RKO cells)	expression of Group 1 genes (n=51) (RKO cells)	basal level of expression of HOXA1, GRO3 and DLX7 (RKO cells; [1])	expression of POR1, MBNL, TRADD, PDIP, RAD23B, RPL13, GNAI2, PPP1R21A, FPGT and TRIM32 (RKO cells; [1])	expression of PTGS2, CDKN2A, TIMP3, S100A10, SFRP1, CXX1, SEZZ6L, KIAA0786, TIMP2, PCDH8, FOLH1 and SNRPN (no detectable basal expression) (RKO cells; [1])	expression of FOLH1 and PCDH8 (silent genes) (CRC cell lines; CRC cell lines)	basal expression of the hypermethylated SFRP genes (the three other than SFRP1) (CRC cell lines; CRC cell lines, DAC treatment)	KIAA0786 expression (not basally expressed despite a lack of methylation) (CRC cell lines; SW480 cells)	expression of Group 1a genes lacking basal expression in the methylated cell lines (CRC cell lines; series of 8 CRC cell lines, incubation with DAC)
Nc1ncn([C@H]2C[C@H](O)[C@@H](CO)O2)c(=O)n1 [DAC, 5-aza-2′-deoxycytidine]	variable initial expression or response	minimal increase in expression	increased	vary among genes	re-expressed	re-expression	restored	reactivated	restored
CC(/C=C/C(=O)NO)=C\[C@@H](C)C(=O)c1ccc(N(C)C)cc1 [TSA, trichostatin A]	up-regulation	no change in expression	not	up-regulated	–	–	–	–	–
